The numbers were not newly measured in patent publication US20090233811A1, “Manufacture of Array Chips” (Randox Laboratories Ltd., priority 2005, published 2009), which cites them from elsewhere.

For the data set the following is noted: data from Sigma-Aldrich Handbook of Stains, Dyes and Indicators.
Take `CC(=O)Nc1cc(S(=O)(=O)[O-])cc2cc(S(=O)(=O)[O-])c(/N=N/c3ccccc3)c(O)c12.[Na+].[Na+]` [Acid Red 1]: the Solubility in water was 60 mg/mL.

Turning to `O=S(=O)([O-])c1cc(S(=O)(=O)[O-])c2c(N=Nc3ccc(N=Nc4ccccc4)cc3)c(O)ccc2c1.[Na+].[Na+]` [Brilliant Crocein MOO], the Solubility in water is 50 mg/mL.

With `O=C([O-])C1=NN(c2ccc(S(=O)(=O)[O-])cc2)C(=O)C1N=Nc1ccc(S(=O)(=O)[O-])cc1.[Na+].[Na+].[Na+]` (stereo not drawn) [Tartrazine], the Solubility in water is 300 mg/mL.

With `O=S(=O)([O-])c1cc(O)c2c(O)c(N=Nc3ccccc3)c(S(=O)(=O)[O-])cc2c1.[Na+].[Na+]` [Chromotrope 2R], the Solubility in water is 200 mg/mL.

As for `O=S(=O)([O-])c1cc(/N=N/c2ccc(O)cc2)ccc1C=Cc1ccc(/N=N/c2ccc(O)cc2)cc1S(=O)(=O)[O-].[Na+].[Na+]` [Brilliant Yellow], the Solubility in water is 1 mg/mL.

For `O=S(=O)([O-])c1ccc2c(/N=N/c3ccccc3)c(O)ccc2c1.[Na+]` [Crocein Orange], the Solubility in water is 40 mg/mL.
